Results: US20100129434A1, “COMPOSITIONS AND METHODS FOR THE TREATMENT OF MUCORMYCOSIS AND OTHER FUNGAL DISEASES” (priority 2006, published 2010)
Where two headings read alike, the source gives them in different places.

Tests used:
R. oryzae 99-892 = assay: Kidney histopathology of DKA mice infected with R. oryzae; assay type: in vivo; conditions: 10 mg/kg bid
Procedure: For in vivo infection, BALB/c male mice (>20 g) were rendered diabetic with a single i.p. injection of 210 mg/kg streptozotocin in 0.2 ml citrate buffer 10 days prior to fungal challenge. Glycosuria and ketonuria were confirmed in all mice 7 days after streptozotocin treatment. For neutropenic mouse model, mice were injected with a single i.p. dose of 200 mg/kg cyclolphosphamide (Bristol Myer Squibb) 2 days prior to infection with R. oryzae. […] Mice were infected through the tail vein with the appropriate inocula of R. oryzae. To confirm the inocula, dilutions were streaked on PDA plates containing 0.1% triton and colonies were counted following a 24 h incubation period at 37° C. The primary efficacy endpoint was time to death. As a secondary endpoint, brain fungal burden (the primary target organ) was determined by homogenization by rolling a pipette on organs placed in Whirl-Pak™ bags (Nasco®, Fort Atkinson, Wis.) containing 1 ml saline. The homogenate was serially diluted in 0.85% saline and then quantitatively cultured on PDA. Values were expressed as log10 cfu g−1 tissue. […]
To determine the impact of deferasirox on tissue fungal burden, diabetic ketoacidotic mice were infected via the tail-vein with 4.2×10^4 spores of R. oryzae 99-892. […] Kidneys and brains were removed on day four, homogenized, and quantitatively cultured.

R. oryzae = assay: Survival of diabetic ketoacidotic (DKA) mice infected with R. oryzae; assay type: in vivo, BALB/c male mice; conditions: DKA mice; for survival compared to controls: 2.2×10^4 spores R. oryzae 99-892, 1, 3, or 10 mg/kg bid for seven days; for 28 day survival: R. oryzae 99-892
Procedure: Briefly, for in vivo infection, BALB/c male mice (>20 g) were rendered diabetic with a single i.p. injection of 210 mg/kg streptozotocin in 0.2 ml citrate buffer 10 days prior to fungal challenge. […] Mice were infected through the tail vein with the appropriate inocula of R. oryzae. To confirm the inocula, dilutions were streaked on PDA plates and colonies were counted following a 24 h incubation period at room temperature. The primary efficacy endpoint was time to death. As a secondary endpoint, brain fungal burden (the primary target organ) was determined by homogenization by rolling a pipette on organs placed in Whirl-Pak bags (Nasco, Fort Atkinson, Wis.) containing 2 ml saline. The homogenate was serially diluted in 0.85% saline and then quantitatively cultured on PDA. Values were expressed as log 10 cfu g^−1 tissue. All procedures involving mice were approved by the institutional animal use and care committee, following the National Institutes of Health guidelines for animal housing and care.
Deferiprone (Apotex Research Inc.) was dissolved in iron-free water and administered intraperitoneally at 50, 100, or 200 mg/kg qd or qod (every other day). Treatment was begun 24 h post infection and continued for a total of 4 doses. Control groups were treated with the diluent, 5% dextrose water.
Deferiprone is known to form molecular complexes with ferric iron (^3+Fe) in a 1:3 ratio of iron to deferiprone. Based on the known molecular weights of ferric chloride (FeCl3, molecular weight 162.22 g/mol) and deferiprone (molecular weight 139 g/mol), a 60 mg/kg dose of FeCl3 was calculated to result in a significant excess of ^3+Fe vs. a 100 mg/kg dose of deferiprone given to an 18 g mouse: ^3+Fe moles=(0.060 g/kg*0.018 kg [mouse weight]/162.22 g/mol)=6.5×10^−6 mol vs. deferiprone moles=(0.1 g/kg*0.018 kg [mouse weight]/139 g/mol)=1.3×10^−5 mol Ratio=1:2 moles of ^3+Fe to deferiprone, which is more than that required to achieve a saturating 1:3 ratio.
Statistical analysis was performed using the nonparametric log rank test was used to determine differences in survival times of the mice. Differences in tissue fungal burdens in the infected organs were compared by the nonparametric Steel test for multiple comparisons. P values of <0.05 were considered significant.
Deferasirox (Novartis Pharmaceuticals, Basel, Switzerland) was suspended in 0.5% hydroxypropylcellulose (Klucel) and administered by oral gavage at 1, 3, or 10 mg/kg […] (qd) or every other day (qod). Treatment was begun 24 h post infection and continued for a total of 5 or 7 doses. Control groups were treated with the diluent, 5% dextrose water and 0.5% Klucel. In some experiments, a saturating dose of free iron was administered with deferasirox. Deferasirox is known to form molecular complexes with ferric iron (^3+Fe) in a 1:2 ratio of iron to deferasirox. Based on the known molecular weights of ferric chloride (FeCl3, molecular weight 162.22 g/mol) and deferasirox (molecular weight 373.4 g/mol), a 2.8 mg/kg dose of FeCl3 was calculated to result in a significant excess of ^3+Fe vs. a 10 mg/kg dose of deferasirox given to an 18 g mouse: ^3+Fe moles=(0.0028 g/kg*0.018 kg [mouse weight]/162.22 g/mol)=3×10^−7 mol vs. deferasirox moles=(0.01 g/kg*0.018 kg [mouse weight]/373.4 g/mol)=5×10^−7 mol Ratio=1:1.7 moles of ^3+Fe to deferasirox, which is more than that required to achieve a saturating 1:2 ratio.
The nonparametric log rank test was used to determine differences in survival times of the mice. Differences in tissue fungal burdens, splenic lymphocyte frequencies, and whole organ cytokines in the infected organs were compared by the Mann Whitney U test. P values of <0.05 were considered significant.

[1] = iron overloaded patients, cited from earlier work
[2] = cited from earlier work

For `O=C(O)c1ccc(-n2nc(-c3ccccc3O)nc2-c2ccccc2O)cc1` [Deferasirox, 4-[3,5-Bis(2-hydroxyphenyl)-1H-1,2,4-triazol-1-yl]-benzoic acid], the “hyphae in kidneys by histopathology” value (R. oryzae 99-892) was “no visible hyphae”, the “neutrophil influx in the kidneys” value (R. oryzae 99-892) was “prominent” and the “time to death compared to placebo” value (R. oryzae; 1.3×10^3 spores R. oryzae 99-880, 10 mg/kg bid seven days) was “significantly improved time to death”. For the same molecule, the “survival compared to controls” value (R. oryzae) was “significantly improved survival”, the “survival compared to controls” value (R. oryzae; listed as Exjade) was “improves survival” and the survival (R. oryzae; R. oryzae 99-880, Deferasirox 10 mg/kg po twice daily, LAmB 15 mg/kg iv once daily 4 doses, or both, placebo 0%) was 25%. It also gave a 28 day survival (R. oryzae; 1 mg/kg bid oral gavage 7 days, placebo 0%, p=0.03) of 29%, a 28 day survival (R. oryzae; 3 mg/kg bid oral gavage 7 days, placebo 0%, p=0.049) of 40% and a 28 day survival (R. oryzae; 10 mg/kg bid oral gavage 7 days, placebo 0%, p=0.01) of 57%. For the same molecule, the “protective effect on administration of free iron” value (R. oryzae; deferasirox plus saturating ferric chloride) was “reversed”, the tolerability ([1]; chronic dosing over months to years, up to 30 mg/kg/d) was “very well tolerated” and the tolerability ([1]; up to 40 mg/kg/d for up to 12 days) was “very well tolerated”. The toxicity ([2]; iron-overloaded marmosets, doses up to 400 mg/kg/d) was “virtually no toxicity”, the toxicity ([2]; non-iron overloaded marmosets, 39 weeks, up to 40 mg/kg/d) was “no toxicities” and the tolerability ([2]; non-iron overloaded marmosets, subacute treatment (4 weeks), up to 65 mg/kg/d) was “well tolerated with no adverse effects”. The toxicity ([2]; non-iron-overloaded marmosets, chronic administration, 80 mg/kg) was “severe toxicity”.
